Test results from patent US11974574B2, “Compositions and related methods for modulating endosymbionts” (Flagship Pioneering Innovations V, Inc., priority 2017, dated 2024).
{Cy3} = Cy3 dye attached by click chemistry

How the values were obtained:
[1] = system: Myzus persicae; assay: Cy3-PNA in artificial diet, aphid survival (Example 13); format: in vivo; conditions: Myzus persicae second and third instar, final 0.5 to 10 mg/L Cy3-PNA, fed 24 hr, mortality checked every 24 h for 4 days
Method: Therapeutic Design: Cy3-PNA Solutions are Formulated with 0, 0.5, 1, 5 or 10 mg/L of Cy3-PNA from Example 11 in 10 mL of 0.5% Sucrose and Essential Amino Acids.
(§1) To prepare for the treatment, aphids are grown in a lab environment and medium. In a climate-controlled room (16 h light photoperiod; 60±5% RH; 20±2° C.), plants are grown in a mixture of vermiculite and perlite and are infested with aphids. To limit maternal effects or health differences between plants, 5-10 adults from different plants are distributed among 10 two-week-old plants, and allowed to multiply to high density for 5-7 days. For experiments, second and third instar aphids are collected from healthy plants and divided into treatments so that each treatment receives approximately the same number of individuals from each of the collection plants.
Wells of a 96-well plate are filled with 200 μl of artificial aphid diet (Febvay et al., Canadian Journal of Zoology 66(11):2449-2453, 1988) and the plate is covered with parafilm to make a feeding sachet. Artificial diet is either mixed with the solution of sterile water with 0.5% sucrose and essential amino acids only as a negative control, or mixed with Cy3-PNA solutions. Cy3-PNA solutions are mixed with artificial diet to obtain final concentrations between 0.5 to 10 mg/L. […]

[2] = system: its target bacterial strains; conditions: against its target bacterial strains; cited from earlier work
[3] = system: Rhopalosiphum maidis; assay: Bcr1 dsRNA in artificial diet, aphid survival (Example 3); format: in vivo; conditions: Rhopalosiphum maidis second and third instar, final 0.5 to 5 μg/ml dsRNA, fed 24 hr, mortality checked every 24 h for 4 days
Method: Aphids are one of the most important agricultural insect pests. They cause direct feeding damage to crops and serve as vectors of plant viruses. In addition, aphid honeydew promotes the growth of sooty mold and attracts nuisance ants. The use of chemical treatments, unfortunately still widespread, leads to the selection of resistant individuals whose eradication becomes increasingly difficult. Therapeutic design: dsRNA solutions are formulated with 0 (negative control), 0.5, 1, or 5 μg/ml of Bcr1 dsRNA from Example 2 in 10 mL of TE buffer with 0.5% sucrose and essential amino acids.
as §1, with “C.), fava bean” for “C.),”, “plants. […]” for “plants.”

[4] = system: Myzus persicae; assay: Bcr1 dsRNA in artificial diet, aphid survival (Example 9); format: in vivo; conditions: Myzus persicae second and third instar, final 0.5 to 5 μg/ml dsRNA, fed 24 hr, mortality checked every 24 h for 4 days
Method: Aphids are one of the most important agricultural insect pests. They cause direct feeding damage to crops and serve as vectors of plant viruses. In addition, aphid honeydew promotes the growth of sooty mold and attracts nuisance ants. The use of chemical treatments, unfortunately still widespread, leads to the selection of resistant individuals whose eradication becomes increasingly difficult. Therapeutic design: dsRNA solutions are formulated with 0 (negative control), 0.5, 1, or 5 μg/mL of Bcr1 dsRNA from Example 7 in 10 mL of TE buffer with 0.5% sucrose and essential amino acids.
as §1, with “(16 hr” for “(16 h”, “plants. […]” for “plants.”

Q: With “Cy3-Gaatgcagctgc (antisense GAATGCAGCTGC; all peptide nucleic acid (PNA), 5' {Cy3}; Cy3 attached via DBCO-azide click chemistry) [Cy3-PNA, antisense PNA against bacteriocyte target gene Bcr1 joined to Cy3 dye through click chemistry]” as the molecule, how does the “survival rate of aphids compared to the control treated aphids” value [1] read?
A: The value was “decreased”.

Q: For “ITSISLCTPGCKTGALMGCNMKTATCHCSIHVSK [nisin]”, which “concentration showing antimicrobial activity” value [2] is on record?
A: Its value is “single-digit nanomolar concentration”.

B1: Bcr1 dsRNA: dsRNA hairpin targeting the Bcr1 gene (ACYPI32128), SEQ ID NO: 93 (nucleic acid, listed as Acyrthosiphon pisum)
chain: AUGAAACUGCUGCAUGGCUUUCUGAUUAUUAUGCUGACCAUGCAUCUGAGCAUUCAGUAUGCGUAUGGCGGCCCGUUUCUGACCAAAUAUCUGUGCGAUCGCGUGUGCCAUAAACUGUGCGGCGAUGAAUUUGUGUGCAGCUGCAUUCAGUAUAAAAGCCUGAAAGGCCUGUGGUUUCCGCAUUGCCCGACCGGCAAAGCGAGCGUGGUGCUGCAUAACUUUCUGACCAGCCCGUUUUUUUUUUCGGGCUGGUCAGAAAGUUAUGCAGCACCACGCUCGCUUUGCCGGUCGGGCAAUGCGGAAACCACAGGCCUUUCAGGCUUUUAUACUGAAUGCAGCUGCACACAAAUUCAUCGCCGCACAGUUUAUGGCACACGCGAUCGCACAGAUAUUUGGUCAGAAACGGGCCGCCAUACGCAUACUGAAUGCUCAGAUGCAUGGUCAGCAUAAUAAUCAGAAAGCCAUGCAGCAGUUUCAU
Q: For B1, which “survival rate of aphids compared to the control treated aphids” value [3] is on record?
A: Its value is “decreased”.

Q: And the “survival rate of aphids compared to the control treated aphids” value [4]?
A: Its value is “decreased”.
